Assays:
[1] = target: T1, PTPN2 (HiBIT-PTPN2 in 293T.109 cells) (Homo sapiens, UniProt P17706); test: HiBiT Degradation 293T.109 PTPN2 (Nano-Glo HiBiT Lytic Assay); type: cell-based; settings: 24.0 hours
T1 construct: expressed in transfected cells; host or cells: 293T.109 (293T WT from ATCC)
T1 sequence (P17706 1-415): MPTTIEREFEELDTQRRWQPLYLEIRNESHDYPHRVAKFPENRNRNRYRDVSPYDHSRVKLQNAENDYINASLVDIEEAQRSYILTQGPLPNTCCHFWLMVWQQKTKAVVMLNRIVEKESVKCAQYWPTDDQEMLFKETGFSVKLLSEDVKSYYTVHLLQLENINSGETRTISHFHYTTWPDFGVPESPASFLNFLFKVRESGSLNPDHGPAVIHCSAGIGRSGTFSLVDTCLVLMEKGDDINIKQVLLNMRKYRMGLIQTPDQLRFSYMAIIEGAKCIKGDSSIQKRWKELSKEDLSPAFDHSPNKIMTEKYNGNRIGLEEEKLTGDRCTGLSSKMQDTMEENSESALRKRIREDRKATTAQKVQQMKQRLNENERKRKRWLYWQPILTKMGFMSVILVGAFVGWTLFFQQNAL
Outline: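 Degradation read-out: lytic HiBiT luminescence after 24 h treatment (37 °C, 5% CO2) of 5000 293T cells per well expressing HiBiT-fused PTPN2 from an N-terminal tag. Dosing was 11 points, half-log steps down from 10 μM, in duplicate; vehicle-treated and no-reagent wells served as controls.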

PTPN2 (B16F10.4 cells) = target: T2, PTPN2 (B16F10.4 cells) (Mus musculus, UniProt Q06180); test: HiBiT Degradation B16F10.4 PTPN2; type: cell-based; settings: 24.0 hours
T2 construct: HiBiT; host or cells: B16F10.4
T2 sequence (Q06180 1-406): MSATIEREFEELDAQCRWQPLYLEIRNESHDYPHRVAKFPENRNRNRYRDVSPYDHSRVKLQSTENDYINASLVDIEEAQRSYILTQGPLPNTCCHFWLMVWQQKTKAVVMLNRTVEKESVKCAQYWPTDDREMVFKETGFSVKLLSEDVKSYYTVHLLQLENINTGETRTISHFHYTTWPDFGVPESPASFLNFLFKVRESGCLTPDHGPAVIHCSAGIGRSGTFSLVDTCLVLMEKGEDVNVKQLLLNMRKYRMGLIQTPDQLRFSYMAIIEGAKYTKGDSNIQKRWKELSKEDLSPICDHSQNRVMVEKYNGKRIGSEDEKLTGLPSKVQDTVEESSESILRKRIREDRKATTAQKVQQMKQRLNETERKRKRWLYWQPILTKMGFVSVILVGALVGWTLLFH

SMILES	DC50 [1]	DC50 (PTPN2 (B16F10.4 cells))
Cc1cn(C2CCC(=O)NC2=O)c2ccc(C3CCN(C(=O)Nc4cccc(CS(=O)(=O)N5CC[C@H](Nc6cccc(-c7sc(C(=O)O)c(OCC(=O)O)c7Cl)c6)CC5(C)C)c4)CC3)cc12 (stereo partly drawn) [Example 211, 3-(carboxymethoxy)-4-chloro-5-[3-[[(4S)-1-[[3-[[4-[1-(2,6-dioxo-3-piperidyl)-3-methyl-indol-5-yl]piperidine-1-carbonyl]amino]phenyl]methylsulfonyl]-2,2-dimethyl-4-piperidyl]amino]phenyl]thiophene-2-carboxylic acid]	200 to 1000 nM	200 to 1000 nM
O=C(O)COc1c(C(=O)O)sc(-c2cccc(N[C@@H]3CCN(S(=O)(=O)Cc4cccc(NC(=O)N5CCC(c6ccc7c8c(cccc68)C(=O)N7C6CCC(=O)NC6=O)CC5)c4)C4(CC4)C3)c2)c1Cl (stereo partly drawn) [Example 231, 3-(carboxymethoxy)-4-chloro-5-(3-(((7R)-4-((3-(4-(1-(2,6-dioxopiperidin-3-yl)-2-oxo-1,2-dihydrobenzo[cd]indol-6-yl)piperidine-1-carboxamido)benzyl)sulfonyl)-4-azaspiro[2.5]octan-7-yl)amino)phenyl)thiophene-2-carboxylic acid]	50 to 200 nM	< 50 nM
Cn1c(=O)n(C2CCC(=O)NC2=O)c2ccc(OC3CN(C(=O)Nc4cccc(CS(=O)(=O)N5CC[C@H](Nc6cccc(-c7sc(C(=O)O)c(OCC(=O)O)c7Cl)c6)CC5(C)C)c4)C3)cc21 (stereo partly drawn) [Example 116]	50 to 200 nM	50 to 200 nM
Cn1c(=O)n(C2CCC(=O)NC2=O)c2ccc(C3CCN(C(=O)Nc4cc(CS(=O)(=O)N5CC[C@H](Nc6cccc(-c7sc(C(=O)O)c(OCC(=O)O)c7Cl)c6)CC5(C)C)ccc4F)CC3)cc21 (stereo partly drawn) [Example 119, 3-(carboxymethoxy)-4-chloro-5-[3-[[(4S)-1-[[3-[[4-[1-(2,6-dioxo-3-piperidyl)-3-methyl-2-oxo-benzimidazol-5-yl]piperidine-1-carbonyl]amino]-4-fluoro-phenyl]methylsulfonyl]-2,2-dimethyl-4-piperidyl]amino]phenyl]thiophene-2-carboxylic acid]	50 to 200 nM	50 to 200 nM
O=C(O)COc1c(C(=O)O)sc(-c2cccc(N[C@H]3CCN(S(=O)(=O)Cc4cccc(NC(=O)N5CCC(c6ccc7c8c(cccc68)C(=O)N7C6CCC(=O)NC6=O)CC5)c4)C4(CC4)C3)c2)c1Cl (stereo partly drawn) [Example 229, 3-(carboxymethoxy)-4-chloro-5-(3-(((7S)-4-((3-(4-(1-(2,6-dioxopiperidin-3-yl)-2-oxo-1,2-dihydrobenzo[cd]indol-6-yl)piperidine-1-carboxamido)benzyl)sulfonyl)-4-azaspiro[2.5]octan-7-yl)amino)phenyl)thiophene-2-carboxylic acid]	50 to 200 nM	< 50 nM
Cn1c(=O)n(C2CCC(=O)NC2=O)c2ccc(N3CCC(OC(=O)Nc4cccc(CS(=O)(=O)N5CC[C@H](Nc6cccc(-c7sc(C(=O)O)c(OCC(=O)O)c7Cl)c6)CC5(C)C)c4)CC3)cc21 (stereo partly drawn) [Example 117, 3-(carboxymethoxy)-4-chloro-5-[3-[[(4S)-1-[[3-[[1-[1-(2,6-dioxo-3-piperidyl)-3-methyl-2-oxo-benzimidazol-5-yl]-4-piperidyl]oxycarbonylamino]phenyl]methylsulfonyl]-2,2-dimethyl-4-piperidyl]amino]phenyl]thiophene-2-carboxylic acid]	50 to 200 nM	50 to 200 nM
CC1(C)C[C@H](Nc2cccc(-c3sc(C(=O)O)c(OCC(=O)O)c3Cl)c2)CCN1S(=O)(=O)Cc1ccc(F)c(NC(=O)N2CCC(c3ccc4c5c(cccc35)C(=O)N4C3CCC(=O)NC3=O)CC2)c1 (stereo partly drawn) [Example 127]	200 to 1000 nM	< 50 nM
Cn1c(=O)n(C2CCC(=O)NC2=O)c2ccc(C3CN(CC(=O)Nc4cccc(CS(=O)(=O)N5CC[C@H](Nc6cccc(-c7sc(C(=O)O)c(OCC(=O)O)c7Cl)c6)CC5(C)C)c4)C3)cc21 (stereo partly drawn) [Example 184]	< 50 nM	50 to 200 nM
CC(C)(c1cccc(NC(=O)CCCCCCNC(=O)CNc2ccc3c(c2)CN(C2CCC(=O)NC2=O)C3=O)c1)S(=O)(=O)N1CCC(Nc2cccc(-c3sc(C(=O)O)c(OCC(=O)O)c3Cl)c2)CC1 (stereo not drawn) [Example 39, 3-(carboxymethoxy)-4-chloro-5-[3-[[1-[1-[3-[7-[[2-[[2-(2,6-dioxo-3-piperidyl)-1-oxo-isoindolin-5-yl]amino]acetyl]amino]heptanoylamino]phenyl]-1-methyl-ethyl]sulfonyl-4-piperidyl]amino]phenyl]thiophene-2-carboxylic acid]	200 to 1000 nM	≥ 1000 nM

Now from value to compound:

DC50 [1]	DC50 (PTPN2 (B16F10.4 cells))	SMILES
50 to 200 nM	50 to 200 nM	Cn1c(=O)n(C2CCC(=O)NC2=O)c2ccc(C3CCN(C(=O)Nc4cccc(CS(=O)(=O)N5CC[C@H](Nc6cccc(-c7sc(C(=O)O)c(OCC(=O)O)c7Cl)c6)CC5(C)C)c4)CC3)c(Cl)c21 (stereo partly drawn) [Example 207, 3-(carboxymethoxy)-4-chloro-5-[3-[[(4S)-1-[[3-[[4-[4-chloro-1-(2,6-dioxo-3-piperidyl)-3-methyl-2-oxo-benzimidazol-5-yl]piperidine-1-carbonyl]amino]phenyl]methylsulfonyl]-2,2-dimethyl-4-piperidyl]amino]phenyl]thiophene-2-carboxylic acid]
200 to 1000 nM	200 to 1000 nM	O=C(O)COc1c(C(=O)O)sc(-c2cccc(NC3CCN(S(=O)(=O)Cc4cccc(NC(=O)N5CCC(Oc6cccc7c6CN(C6CCC(=O)NC6=O)C7=O)CC5)c4)CC3)c2)c1Cl (stereo not drawn) [Example 65]
200 to 1000 nM	200 to 1000 nM	O=C(O)COc1c(C(=O)O)sc(-c2cccc(NC3CCN(S(=O)(=O)Cc4cccc(NC(=O)N5CCC(Nc6cccc7c6CN(C6CCC(=O)NC6=O)C7=O)CC5)c4)CC3)c2)c1Cl (stereo not drawn) [Example 59, 3-(carboxymethoxy)-4-chloro-5-[3-[[1-[[3-[[4-[[2-(2,6-dioxo-3-piperidyl)-1-oxo-isoindolin-4-yl]amino]piperidine-1-carbonyl]amino]phenyl]methylsulfonyl]-4-piperidyl]amino]phenyl]thiophene-2-carboxylic acid]
50 to 200 nM	50 to 200 nM	CC1(C)C[C@@H](Nc2cccc(-c3sc(C(=O)O)c(OCC(=O)O)c3Cl)c2)CCN1S(=O)(=O)Cc1cccc(NC(=O)[C@H]2[C@@H]3CN(C(=O)COc4cccc5c4CN(C4CCC(=O)NC4=O)C5=O)C[C@@H]32)c1 (stereo partly drawn) [Example 101]
50 to 200 nM	200 to 1000 nM	CC1(C)C[C@@H](Nc2cccc(-c3sc(C(=O)O)c(OCC(=O)O)c3Cl)c2)CCN1S(=O)(=O)Cc1cccc(NC(=O)N2CCN(C(=O)CNc3cccc4c3CN(C3CCC(=O)NC3=O)C4=O)CC2)c1 (stereo partly drawn) [Example 62, 3-(carboxymethoxy)-4-chloro-5-(3-(((4S)-1-((3-(4-((2-(2,6-dioxopiperidin-3-yl)-1-oxoisoindolin-4-yl)glycyl)piperazine-1-carboxamido)benzyl)sulfonyl)-2,2-dimethylpiperidin-4-yl)amino)phenyl)thiophene-2-carboxylic acid]
50 to 200 nM	50 to 200 nM	CC1(C)C[C@@H](Nc2cccc(-c3sc(C(=O)O)c(OCC(=O)O)c3Cl)c2)CCN1S(=O)(=O)Cc1cccc(NC(=O)N2CCC(c3ccc4c(c3)oc(=O)n4C3CCC(=O)NC3=O)CC2)c1 (stereo partly drawn) [Example 68, 3-(carboxymethoxy)-4-chloro-5-[3-[[(4S)-1-[[3-[[4-[3-(2,6-dioxo-3-piperidyl)-2-oxo-1,3-benzoxazol-6-yl]piperidine-1-carbonyl]amino]phenyl]methylsulfonyl]-2,2-dimethyl-4-piperidyl]amino]phenyl]thiophene-2-carboxylic acid]

— patent publication US20250302815A1, “PROTEIN TYROSINE PHOSPHATASE TARGETING LIGANDS” (CALICO LIFE SCIENCES LLC, priority 2021, published 2025)
